Source: ChEMBL document CHEMBL2086319, “From the first selective non-peptide AT(2) receptor agonist to structurally related antagonists” (J Med Chem, 2012)
The source made the active and inactive calls. The calls are words filed in the database; no cut-off is given here.

Assays:
[1] = Displacement of [125I]Ang 2 from rat liver membrane AT1 receptor after 2 hrs by micro-counter
[2] = Displacement of [125I]Ang 2 from pig uterus membrane AT2 receptor after 1.5 hrs by micro-counter; set-up: species or system Sus scrofa
[3] = tested on: NG108-15; assay: Induction of neurite outgrowth in mouse/rat NG108-15 cells at 1 nM after 3 days by phase contrast microscopy in presence of PD123,319; type: functional, cell-based
[4] = tested on: NG108-15; assay: Inhibition of Ang 2-induced neurite outgrowth in mouse/rat NG108-15 cells at 10 nM after 3 days by phase contrast microscopy; type: functional, cell-based
[5] = tested on: NG108-15; assay: Induction of neurite outgrowth in mouse/rat NG108-15 cells at 10 nM after 3 days by phase contrast microscopy; type: functional, cell-based
[6] = tested on: NG108-15; assay: Induction of neurite outgrowth in mouse/rat NG108-15 cells at 10 nM after 3 days by phase contrast microscopy in presence of PD123,319; type: functional, cell-based
[7] = tested on: NG108-15; assay: Effect on neurite outgrowth in mouse/rat NG108-15 cells assessed as morphological changes at 10 uM after 3 days by phase contrast microscopy; type: functional, cell-based

| Structure (SMILES) | Ki [1] [nM] | Ki [2] [nM] | also measured |
| --- | --- | --- | --- |
| CCCCOC(=O)NS(=O)(=O)c1sc(CC(C)C)cc1-c1cccc(Cn2ccnc2Cl)c1 | > 10000 | 9.2 | Activity [5]: inactive; inhibition [4]: Active; Activity [6]: Active |
| CCCCOC(=O)NS(=O)(=O)c1sc(CC(C)C)cc1-c1cccc(Cn2ccnc2-c2cccs2)c1 | > 10000 | 28 | – |
| CCCCOC(=O)NS(=O)(=O)c1sc(CC(C)C)cc1-c1cccc(Cn2ccnc2C)c1 | > 10000 | 29 | – |
| CCCCOC(=O)NS(=O)(=O)c1sc(CC(C)C)cc1-c1cccc(CN(C)C(=O)CCCC)c1 | > 10000 | 56 | – |
| CCCCOC(=O)NS(=O)(=O)c1sc(CC(C)C)cc1-c1cccc(CN(Cc2cccnc2)C(C)=O)c1 | > 10000 | 83 | – |
| Cc1cc(Cn2cnc3c2C[C@@H](C(=O)O)N(C(=O)C(c2ccccc2)c2ccccc2)C3)ccc1N(C)C | – | – | Activity [7]: inactive |
| CCCCOC(=O)NS(=O)(=O)c1sc(CC(C)C)cc1-c1cccc(CN(CC)S(=O)(=O)c2cccs2)c1 | > 10000 | 133 | – |
| CCCCOC(=O)NS(=O)(=O)c1sc(CC(C)C)cc1-c1cccc(Cn2ccnc2CCCC)c1 | > 10000 | 10 | – |
| CCCCOC(=O)NS(=O)(=O)c1sc(CC(C)C)cc1-c1cccc(C(=O)Cn2cnc3ccccc32)c1 | > 10000 | 20 | Activity [5]: inactive; inhibition [4]: Active; Activity [6]: Active |
| CCCCOC(=O)NS(=O)(=O)c1sc(CC(C)C)cc1-c1cccc(CN2C(=O)CCC2=O)c1 | > 10000 | 147 | – |
| CCCCOC(=O)NS(=O)(=O)c1sc(CC(C)C)cc1-c1cccc(CN(Cc2ccccc2)C(C)=O)c1 | > 10000 | 79 | – |
| CCCCOC(=O)NS(=O)(=O)c1sc(CC(C)C)cc1-c1cccc(CN(CC(F)(F)F)C(C)=O)c1 | > 10000 | 72 | – |
| CCCCOC(=O)NS(=O)(=O)c1sc(CC(C)C)cc1-c1cccc(CCn2ccnc2)c1 | > 10000 | 118 | – |
| CCCCOC(=O)NS(=O)(=O)c1sc(CC(C)C)cc1-c1cccc(CN(Cc2ccccc2)C(=O)c2cccs2)c1 | > 10000 | 670 | – |
| CCCCOC(=O)NS(=O)(=O)c1sc(CC(C)C)cc1-c1cccc(Cn2ccnc2-c2ccsc2)c1 | > 10000 | 33 | – |
| CCCCOC(=O)NS(=O)(=O)c1sc(CC(C)C)cc1-c1cccc(CN2CCCC2=O)c1 | > 10000 | 224 | – |

Now from value to compound, other results behind:

| Ki [1] [nM] | Ki [2] [nM] | Structure (SMILES) | also measured |
| --- | --- | --- | --- |
| > 10000 | 233 | CCCCOC(=O)NS(=O)(=O)c1sc(CC(C)C)cc1-c1cccc(Cn2ccc(C(F)(F)F)n2)c1 | – |
| > 10000 | 35 | CCCCOC(=O)NS(=O)(=O)c1sc(CC(C)C)cc1-c1cccc(CN(Cc2ccccc2)C(=O)CCCC)c1 | – |
| > 10000 | 28 | CCCCOC(=O)NS(=O)(=O)c1sc(CC(C)C)cc1-c1cccc(Cn2ccnc2-c2ccccn2)c1 | – |
| > 10000 | 1.6 | CCCCOC(=O)NS(=O)(=O)c1sc(CC(C)C)cc1-c1cccc(CN(C)C(=O)C(=O)OCC)c1 | Activity [3]: Active |
| > 10000 | 29 | CCCCOC(=O)NS(=O)(=O)c1sc(CC(C)C)cc1-c1cccc(CN(CC)C(C)=O)c1 | – |
| > 10000 | 37 | CCCCOC(=O)NS(=O)(=O)c1sc(CC(C)C)cc1-c1cccc(CN2C(=O)CN(C)C2=O)c1 | – |
| > 10000 | 67 | CCCCOC(=O)NS(=O)(=O)c1sc(CC(C)C)cc1-c1cccc(Cn2ccnc2-c2ccccc2)c1 | – |
| > 10000 | 163 | CCCCOC(=O)NS(=O)(=O)c1sc(CC(C)C)cc1-c1cccc(CN(CC(F)(F)F)C(=O)C2CC2)c1 | – |
| > 10000 | 47 | CCCCOC(=O)NS(=O)(=O)c1sc(CC(C)C)cc1-c1cccc(CN(Cc2cccnc2)C(=O)c2ccccc2)c1 | inhibition [4]: Active |
| > 10000 | 32 | CCCCOC(=O)NS(=O)(=O)c1sc(CC(C)C)cc1-c1cccc(Cn2cnc3ccccc32)c1 | – |
| > 10000 | 66 | CCCCOC(=O)NS(=O)(=O)c1sc(CC(C)C)cc1-c1cccc(Cn2cnc3cccnc32)c1 | – |
| > 10000 | 110 | CCCCOC(=O)NS(=O)(=O)c1sc(CC(C)C)cc1-c1cccc(Cn2cccn2)c1 | – |
| > 10000 | 8 | CCCCOC(=O)NS(=O)(=O)c1sc(CC(C)C)cc1-c1cccc(Cn2ccnc2CC)c1 | – |
| > 10000 | 46 | CCCCOC(=O)NS(=O)(=O)c1sc(CC(C)C)cc1-c1cccc(CN(C(=O)c2ccccc2)c2ccc(C)cc2)c1 | – |
| > 10000 | 2.2 | CCCCOC(=O)NS(=O)(=O)c1sc(CC(C)C)cc1-c1cccc(CN(CC)C(=O)c2cccs2)c1 | – |
| > 10000 | 45 | CCCCOC(=O)NS(=O)(=O)c1sc(CC(C)C)cc1-c1cccc(CN(C)C(=O)OCC)c1 | – |
| > 10000 | 44 | CCCCOC(=O)NS(=O)(=O)c1sc(CC(C)C)cc1-c1cccc(Cn2cnc3ncccc32)c1 | – |
| > 10000 | 17 | CCCCOC(=O)NS(=O)(=O)c1sc(CC(C)C)cc1-c1cccc(Cn2ccnc2C(C)=O)c1 | – |
| > 10000 | > 10000 | CCCCOC(=O)NS(=O)(=O)c1sc(CC(C)C)cc1-c1cccc(CN(C)S(C)(=O)=O)c1 | – |
| > 10000 | 13 | CCCCOC(=O)NS(=O)(=O)c1sc(CC(C)C)cc1-c1cccc(CN(C)C(=O)c2cccs2)c1 | – |
| > 10000 | 29 | CCCCOC(=O)NS(=O)(=O)c1sc(CC(C)C)cc1-c1cccc(CN(C)C(C)=O)c1 | – |
| > 10000 | 120 | CCCCOC(=O)NS(=O)(=O)c1sc(CC(C)C)cc1-c1cccc(CN(C(C)=O)c2ccc(C)cc2)c1 | – |
| > 10000 | 55 | CCCCOC(=O)NS(=O)(=O)c1sc(CC(C)C)cc1-c1cccc(CN(C)C=O)c1 | – |
